# Assay results from US10689342B2, “Aza-tanshinone derivatives, process for their preparation and their use in therapy” (UNIVERSITA' DEGLI STUDI DI MILANO, priority 2016, dated 2020).
# Assays:
# [1] = alamar Blue viability assay; format: cell-based, human; conditions: human, THP-1 cells (monocytic leukemia), 24 hours, vs DMSO; for viability at 24 h, 10 µM: THP1, 10 μM; for viability at 24 h, 50 µM: THP1, 50 μM
# Method: (§1) Tumor cell lines of metastatic breast cancer (MDA-MB-231), breast cancer (MCF7), human monocytic leukemia (THP-1) and pancreatic carcinoma (PANC-1) have been cultured in a complete DMEM or RPMI 1640 (Gibco Life Technologies) supplemented with 10% fetal bovine serum (FBS, Lonza), 2 mM L-glutamine and 100 U/ml penicillin-streptomycin (Lonza). The cell lines have been cultured at 37° C. in 5% CO2 and have been regularly tested for Mycoplasma contamination. The viability has been measured by means of alamar Blue assay (Thermo Fisher) under treatment for 24 hours with nanomolar to micromolar doses of aza-tanshinones. The mean viability and the standard deviation (SD) per each test compound have been obtained from the dose-response curves for triple doses (0.01, 0.1, 1. 10. 50 μM) in comparison with the control vehicle (DMSO).
# (§2) The group of cell lines used in Paragraph 8.2, with the addition of the tumor cell lines of the metastatic breast cancer SK-BR-3 and of the colon adenocarcinoma SW-480, has been used to measure the IC50/cytotoxicity potency of compound 26. The viability assays have been performed as shown in Paragraph 8.2.
# [2] = biological target: T1, HuR-mRNA interaction (Homo sapiens, UniProt Q15717); assay: AlphaScreen assay, inhibition of HuR-mRNA interaction; format: binding; conditions: for IC50: rHuR and biotinylated RNA probe
# T1 construct: made in house; host or cells: HEK293T cells
# T1 sequence (Q15717 whole entry): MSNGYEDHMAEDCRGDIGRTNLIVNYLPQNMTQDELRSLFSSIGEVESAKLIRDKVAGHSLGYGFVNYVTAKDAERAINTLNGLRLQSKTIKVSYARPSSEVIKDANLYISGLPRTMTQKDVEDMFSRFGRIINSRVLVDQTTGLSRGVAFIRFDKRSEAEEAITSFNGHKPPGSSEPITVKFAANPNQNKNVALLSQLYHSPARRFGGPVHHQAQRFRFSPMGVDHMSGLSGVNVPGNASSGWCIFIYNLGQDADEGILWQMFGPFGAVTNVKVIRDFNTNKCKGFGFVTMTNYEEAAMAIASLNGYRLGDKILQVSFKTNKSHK
# Method: The full encoding sequence for human HuR/ELAVL1 gene (NM001419) has been amplified from cDNA obtained by retro-transcription from RNA of MCF7 cells and inserted into the pCMV6-AC-Myc-His PrecisionShuttle vector (Origene Technologies). The pCMV6-HuR recombinant vector has been transfected into HEK293T cells by using the transfection reagent Lipofectamine® 2000 (Life Technologies) according to the manufacturer protocol. HEK293T cells have been cultured in a complete medium (10% DMEM, 10% FBS, 2 mM Glutamine, 100 units/ml penicillin+100 μg/ml streptomycin) in humidified 5% CO2 atmosphere at 37° C.
# Two types of assay have been performed, in order to define the profile of the aza-tanshinones and their inhibitory activity. REMSA (RNA-EMSA, RNA electrophoresis mobility shift assay) in 5% polyacrylamide gel requires the use of a RNA fluorescent probe (5′-Cy3-[…]), while the AlphaScreen assay required a RNA 5′-biotinylated probe (BiTNF, 5′-[…]). […] IC50 values have been obtained by means of non-linear regression of the fit of the log(dose) response by using the same software.
# [3] = alamar Blue viability assay; format: cell-based; conditions: human, 24 hours, vs DMSO
# Method: as §1, §2
# [4] = test system: PANC1; assay: Scratch assay; format: cell-based; conditions: 24 hours
# Method: (§3) Scratch assays have been carried out on 6-well plates and, after treatment for 24 hours with aza-tanshinone 26, the empty area of the scratched wells has been calculated by using the ImageJ software. The experiments have been carried out in duplicate.
# [5] = test system: MDA-MB-231; assay: Scratch assay; format: cell-based; conditions: 24 hours (DMSO 35 ± 1.92)
# Method: as §3
# [6] = test system: THP-1; assay: alamar Blue viability assay; format: cell-based, human; conditions: for Viability: vs DMSO
# Method: as §1, §2
# [7] = test system: THP-1 human leukemia monocytes; assay: Cytokine mRNA levels by Q-RT-PCR; format: cell-based; conditions: THP-1, LPS 26 vs LPS DMSO = 1
# Method: THP-1 human leukemia monocytes (5*10^4/well) have been seeded in a 6-well plate and cultured under standard conditions for 24 hours as already described. The mRNA total levels for a group of cytokines have been quantified by means of standard quantitative real-time PCR (Q-RT-PCR). Two-way ANOVA has been applied for a statistical significance of the effects of compound 26 on the decrease of the mRNA of the cytokines.
# [8] = test system: TNF mRNA in MCF-7 breast cancer cells; assay: Downregulation of TNF mRNA with LPS co-treatment; format: cell-based
# Method: MCF-7 breast cancer cells (5*10^4/well) have been seeded in 6-well plates and cultured under standard conditions for 24 hours. The MCF-7 cells have then been treated for 3 hours in a complete medium with compound 26, or with DMSO/control vehicle. Three hours of treatment with DHTS in the MCF-7 cells have been enough to observe HuR-dependent post-transcriptional effects (44), whereby the same experimental conditions have been used here, including the co-treatment with lipopolysaccharide (LPS) as positive control to induce the TNF expression.
# [9] = test system: PANC-1; assay: alamar Blue viability assay; format: cell-based; conditions: for Viability: vs DMSO
# Method: as §1, §2
# [10] = test system: SK-BR-3; assay: alamar Blue viability assay; format: cell-based
# Method: as §1, §2
# [11] = test system: SW-480; assay: alamar Blue viability assay; format: cell-based
# Method: as §1, §2
# [12] = test system: MDA-MB-231; assay: alamar Blue viability assay; format: cell-based; conditions: for Viability: vs DMSO
# Method: as §1, §2
# [13] = test system: MCF7; assay: alamar Blue viability assay; format: cell-based; conditions: for Viability: vs DMSO
# Method: as §1, §2
# [14] = test system: MDA-MB-231 cells; assay: xCELLigence trans-well migration assay; format: cell-based; conditions: MDA-MB-231, THP1-conditioned medium
# Description: Migration assays have been carried out by using the xCELLigence RTCA DP Instrument (Roche) by seeding 5,000 cells/well at t0 in CIM-Plates-16 (Roche), using the 1% FBS medium (THP1 conditions) in the lower chamber and MDA-MB-231 cells seeded in the same way in the upper chamber. The ability of the MDA-MB-231 cells to migrate depends also on the presence of cytokines regulated by HuR in the surrounding environment.
# [15] = MCF7 cells (breast cancer), MCF7, 10 μM
# [16] = MCF7 cells (breast cancer), MCF7, 50 μM
# [17] = MDA-MB-231 cells (metastatic breast cancer), MDA-MB-231, 10 μM
# [18] = MDA-MB-231 cells (metastatic breast cancer), MDA-MB-231, 50 μM
# [19] = PANC-1 cells (pancreatic carcinoma), PANC-1, 10 μM
# [20] = PANC-1 cells (pancreatic carcinoma), PANC-1, 50 μM
smiles,measurement,setting,value
"O=C1C=Cc2c(c(-c3ccccc3)cn2S(=O)(=O)c2ccc([N+](=O)[O-])cc2)C1=O [Compound 23, 1-(p-Nitrophenylsulfonyl)-3-phenyl-4,5-dioxo indole]","viability at 24 h, 10 µM",[1],98%
same,"viability at 24 h, 50 µM",[1],31%
same,IC50,[2],241 ± 42 nM
same,"viability at 24 h, 10 µM",[3]; [15],100%
same,"viability at 24 h, 50 µM",[3]; [16],66%
same,"viability at 24 h, 10 µM",[3]; [17],104%
same,"viability at 24 h, 50 µM",[3]; [18],80%
same,"viability at 24 h, 10 µM",[3]; [19],92%
same,"viability at 24 h, 50 µM",[3]; [20],36%
"O=C1C=Cc2c(c(-c3ccccc3)cn2S(=O)(=O)c2cccc([N+](=O)[O-])c2)C1=O [Compound 24, 1-(m-Nitrophenylsulfonyl)-3-phenyl-4,5-dioxoindole]","viability at 24 h, 10 µM",[1],100%
same,"viability at 24 h, 50 µM",[1],27%
same,IC50,[2],342 ± 64 nM
same,"viability at 24 h, 10 µM",[3]; [15],100%
same,"viability at 24 h, 50 µM",[3]; [16],54%
same,"viability at 24 h, 10 µM",[3]; [17],94%
same,"viability at 24 h, 50 µM",[3]; [18],36%
same,"viability at 24 h, 10 µM",[3]; [19],91%
same,"viability at 24 h, 50 µM",[3]; [20],20%
"O=C1C=Cc2c(c(-c3ccccc3)cn2S(=O)(=O)c2ccc(F)cc2)C1=O [Compound 25, 1-(p-Fluorophenylsulfonyl)-3-phenyl-4,5-dioxo indole]","viability at 24 h, 10 µM",[1],100%
same,"viability at 24 h, 50 µM",[1],35%
same,"viability at 24 h, 10 µM",[3]; [15],100%
same,"viability at 24 h, 50 µM",[3]; [16],63%
same,"viability at 24 h, 10 µM",[3]; [17],103%
same,"viability at 24 h, 50 µM",[3]; [18],50%
same,"viability at 24 h, 10 µM",[3]; [19],100%
same,"viability at 24 h, 50 µM",[3]; [20],29%
"O=C1C=Cc2c(c(-c3ccccc3)cn2S(=O)(=O)c2ccccc2)C1=O [Compound 26, 1-Phenylsulfonyl-3-phenyl-4,5-dioxo indole]",empty area of the scratched wells,"[4]; PANC1, 26 1 μM",38 ± 7
same,empty area of the scratched wells,"[4]; PANC1, 26 5 μM",32 ± 0.01
same,empty area of the scratched wells,"[5]; MDA-MB-231, 26 1 μM",45 ± 4
same,empty area of the scratched wells,"[5]; MDA-MB-231, 26 5 μM",45 ± 1
same,IC50,"[6]; Homo sapiens, THP-1, cytotoxicity, 24 hours",9770 ± 150 nM
same,% cell death,[6]; THP-1,52%
same,CCL2 mRNA level,[7],0.88
same,CCL5 mRNA level,[7],0.51
same,CCL8 mRNA level,[7],0.00
same,IFNA1 mRNA level,[7],0.46
same,IFNB1 mRNA level,[7],0.33
same,IFNG mRNA level,[7],0.38
same,IL1A mRNA level,[7],1.04
same,IL1B mRNA level,[7],0.22
same,IL2 mRNA level,[7],1.18
same,IL4 mRNA level,[7],0.82
same,IL7 mRNA level,[7],0.56
same,IL8 mRNA level,[7],0.15
same,IL10 mRNA level,[7],0.16
same,IL13 mRNA level,[7],0.53
same,IL15 mRNA level,[7],0.91
same,IL17A mRNA level,[7],0.30
same,IL18 mRNA level,[7],0.36
same,IL19 mRNA level,[7],0.01
same,TNF mRNA level,[7],0.38
same,TNF mRNA level,"[8]; MCF-7, LPS+26, 3 hours (LPS+DMSO 1.62)",1.00
same,TNF RNA amount,"[8]; MCF-7, LPS+26 relative to LPS+DMSO, 3 hours",62%
same,reduction of the TNF mRNA with respect to the control,"[8]; MCF-7, after 3 hours",35%
same,IC50,"[9]; Homo sapiens, PANC-1, cytotoxicity, 24 hours",6270 ± 70 nM
same,% cell death,[9]; PANC-1,49%
same,IC50,"[10]; Homo sapiens, SK-BR-3, cytotoxicity, 24 hours",5180 ± 110 nM
same,% cell death,[10]; SK-BR-3,57%
same,IC50,"[11]; Homo sapiens, SW480, cytotoxicity, 24 hours",4810 ± 230 nM
same,% cell death,[11]; SW480,62%
same,IC50,"[12]; Homo sapiens, MDA-MB-231, cytotoxicity, 24 hours",1570 ± 40 nM
same,% cell death,[12]; MDA-MB-231,66%
same,IC50,"[13]; Homo sapiens, MCF7, cytotoxicity, 24 hours",3850 ± 80 nM
same,% cell death,[13]; MCF7,71%
same,Minimum of trans-well migration,[14]; 26 1 μM (LPS control 0.7176),0.1057
same,Maximum of trans-well migration,[14]; 26 1 μM (LPS control 3.053),1.246
same,Minimum of trans-well migration,[14]; 26 5 μM (LPS control 0.7176),0.1416
same,Maximum of trans-well migration,[14]; 26 5 μM (LPS control 3.053),0.3311
"O=C1C=Cc2c(c(-c3ccccc3)cn2S(=O)(=O)c2cccc(F)c2)C1=O [Compound 27, 1-(m-Fluorophenylsulfonyl)-3-phenyl-4,5-dioxo indole]","viability at 24 h, 10 µM",[1],83%
same,"viability at 24 h, 50 µM",[1],32%
same,IC50,[2],251 ± 31 nM
same,"viability at 24 h, 10 µM",[3]; [15],108%
same,"viability at 24 h, 50 µM",[3]; [16],79%
same,"viability at 24 h, 10 µM",[3]; [17],103%
same,"viability at 24 h, 50 µM",[3]; [18],51%
same,"viability at 24 h, 10 µM",[3]; [19],102%
same,"viability at 24 h, 50 µM",[3]; [20],20%
"COc1ccc(-c2cn(S(=O)(=O)c3ccccc3)c3c2C(=O)C(=O)C=C3)cc1 [Compound 28, 1-phenylsulfonyl-3-(p-methoxyphenyl)-4,5-dioxo indole]","viability at 24 h, 10 µM",[1],105%
same,"viability at 24 h, 50 µM",[1],46%
same,IC50,[2],287 ± 30 nM
same,"viability at 24 h, 10 µM",[3]; [15],91%
same,"viability at 24 h, 50 µM",[3]; [16],75%
same,"viability at 24 h, 10 µM",[3]; [17],106%
same,"viability at 24 h, 50 µM",[3]; [18],57%
same,"viability at 24 h, 10 µM",[3]; [19],90%
same,"viability at 24 h, 50 µM",[3]; [20],32%
"COc1cccc(-c2cn(S(=O)(=O)c3ccccc3)c3c2C(=O)C(=O)C=C3)c1 [Compound 29, 1-Phenylsulfonyl-3-(m-methoxyphenyl)-4,5-dioxoindole]",IC50,[2],352 ± 57 nM
"O=C1C(=O)c2c(-c3ccccc3)cn(S(=O)(=O)c3ccccc3)c2C2=C1C1CCC2CC1 [Compound 32, 3-Phenyl-1-phenylsulfonyl-4,5-dioxo-6,9-ethanbenzo[g]indole]",Viability,"[6]; THP1, 10 μM, 24 hours",0.55
same,Viability,"[6]; THP1, 50 μM, 24 hours",0.00
same,cell death,"[6]; THP-1 cells, 10 μM",greater than 20%
same,IC50,[2],121 ± 55 nM
same,Viability,"[9]; PANC-1, 10 μM, 24 hours",0.85
same,Viability,"[9]; PANC-1, 50 μM, 24 hours",0.15
same,Viability,"[12]; MDA-MB-231, 10 μM, 24 hours",1.00
same,Viability,"[12]; MDA-MB-231, 50 μM, 24 hours",0.28
same,Viability,"[13]; MCF7, 10 μM, 24 hours",1.09
same,Viability,"[13]; MCF7, 50 μM, 24 hours",0.14
"Cc1cccc2c3c(ccc12)C1=C(C(=O)C3=O)[C@@H](C)CO1 [DHTS, Dihydrotanshinone, reference compound]",Ki,"[2]; 1-site competition model, RNA 50 nM, Kd 2.5 nM, read-out: Complete Ki",3.74 ± 1.63 nM
same,IC50,[2],149 ± 34 nM
